Reference: the supplement of paper PMC10307832

Columns and labels:
Assay in all cases: relative viability (nuclei count vs DMSO), 5 days (fraction); higher = more cells survive
[1] = test system: LCLC-103H
Summary of the method: (§1)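 Each reported value is a median over duplicate plates. It expresses relative viability: treated-well nuclei count divided by vehicle-well nuclei count. Lung cancer cell lines in 1536-well plates were dosed by pin tool a day after seeding, alone with one drug or with a fixed anchor-drug dose plus five library-drug doses (not always all listed) in √10 steps, and nuclei were counted after 5 days.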

[2] = test system: LXF-289
Summary of the method: as §1

[3] = test system: NCI-H1355
Summary of the method: as §1

[4] = test system: NCI-H1651
Summary of the method: as §1

[5] = test system: NCI-H1755
Summary of the method: as §1

[6] = test system: NCI-H1915
Summary of the method: as §1

[7] = test system: NCI-H2347
Summary of the method: as §1

[8] = test system: NCI-H3122
Summary of the method: as §1

[9] = test system: NCI-H322M
Summary of the method: as §1

[10] = test system: NCI-H441
Summary of the method: as §1

[11] = test system: NCI-H460
Summary of the method: as §1

[12] = test system: NCI-H520
Summary of the method: as §1

[13] = test system: NCI-H522
Summary of the method: as §1

[14] = test system: NCI-H596
Summary of the method: as §1

[15] = test system: NCI-H661
Summary of the method: as §1

[16] = test system: NCI-H727
Summary of the method: as §1

[17] = test system: PC-14
Summary of the method: as §1

[18] = test system: RERF-LC-KJ
Summary of the method: as §1

[19] = test system: SK-MES-1
Summary of the method: as §1

[20] = test system: SW 900
Summary of the method: as §1

Work on `Cc1sc2c(c1C)C(c1ccc(Cl)cc1)=N[C@@H](CC(=O)OC(C)(C)C)c1nnc(C)n1-2` [JQ1] + Cc1cc(Nc2cc(N3CCN(C)CC3)nc(Sc3ccc(NC(=O)C4CC4)cc3)n2)n[nH]1 [Tozasertib] (partner 0.1 µM) yielded a relative viability ([1]; first compound 0.04 µM) of 0.429, a relative viability ([1]; first compound 0.1265 µM) of 0.384 and a relative viability ([1]; first compound 0.4 µM) of 0.288. The relative viability ([1]; first compound 1.265 µM) was 0.289, the relative viability ([1]; first compound 4 µM) was 0.171 and the relative viability ([2]; first compound 0.04 µM) was 0.171. The relative viability ([2]; first compound 0.1265 µM) was 0.134, the relative viability ([2]; first compound 0.4 µM) was 0.0871 and the relative viability ([2]; first compound 1.265 µM) was 0.0699. It also gave a relative viability ([2]; first compound 4 µM) of 0.0528, a relative viability ([3]; first compound 0.04 µM) of 0.522 and a relative viability ([3]; first compound 0.1265 µM) of 0.387. For the same molecule, the relative viability ([3]; first compound 0.4 µM) was 0.324, the relative viability ([3]; first compound 1.265 µM) was 0.23 and the relative viability ([3]; first compound 4 µM) was 0.202. The relative viability ([4]; first compound 0.04 µM) was 0.69, the relative viability ([4]; first compound 0.1265 µM) was 0.683 and the relative viability ([4]; first compound 0.4 µM) was 0.672. It also gave a relative viability ([4]; first compound 1.265 µM) of 0.31, a relative viability ([4]; first compound 4 µM) of 0.24 and a relative viability ([5]; first compound 0.04 µM) of 0.587. For the same molecule, the relative viability ([5]; first compound 0.1265 µM) was 0.584, the relative viability ([5]; first compound 0.4 µM) was 0.566 and the relative viability ([5]; first compound 1.265 µM) was 0.444. The relative viability ([5]; first compound 4 µM) was 0.411, the relative viability ([6]; first compound 0.04 µM) was 0.439 and the relative viability ([6]; first compound 0.1265 µM) was 0.344. The relative viability ([6]; first compound 0.4 µM) was 0.325, the relative viability ([6]; first compound 1.265 µM) was 0.218 and the relative viability ([6]; first compound 4 µM) was 0.15. For the same molecule, the relative viability ([7]; first compound 0.04 µM) was 0.539, the relative viability ([7]; first compound 0.1265 µM) was 0.554 and the relative viability ([7]; first compound 0.4 µM) was 0.489. The relative viability ([7]; first compound 1.265 µM) was 0.308, the relative viability ([7]; first compound 4 µM) was 0.237 and the relative viability ([8]; first compound 0.04 µM) was 0.353. The relative viability ([8]; first compound 0.4 µM) was 0.189, the relative viability ([8]; first compound 1.265 µM) was 0.0696 and the relative viability ([8]; first compound 4 µM) was 0.0737. It also gave a relative viability ([9]; first compound 0.04 µM) of 0.445, a relative viability ([9]; first compound 0.1265 µM) of 0.443 and a relative viability ([9]; first compound 0.4 µM) of 0.427. The relative viability ([9]; first compound 1.265 µM) was 0.362, the relative viability ([9]; first compound 4 µM) was 0.375 and the relative viability ([10]; first compound 0.04 µM) was 0.629. The relative viability ([10]; first compound 0.1265 µM) was 0.66, the relative viability ([10]; first compound 0.4 µM) was 0.631 and the relative viability ([10]; first compound 1.265 µM) was 0.417. The relative viability ([10]; first compound 4 µM) was 0.219, the relative viability ([11]; first compound 0.04 µM) was 0.402 and the relative viability ([11]; first compound 0.4 µM) was 0.119. The relative viability ([11]; first compound 1.265 µM) was 0.0684, the relative viability ([11]; first compound 4 µM) was 0.0339 and the relative viability ([12]; first compound 0.04 µM) was 0.508. It also gave a relative viability ([12]; first compound 0.1265 µM) of 0.406, a relative viability ([12]; first compound 0.4 µM) of 0.332 and a relative viability ([12]; first compound 1.265 µM) of 0.296. It also gave a relative viability ([12]; first compound 4 µM) of 0.25, a relative viability ([13]; first compound 0.04 µM) of 0.598 and a relative viability ([13]; first compound 0.1265 µM) of 0.503. The relative viability ([13]; first compound 0.4 µM) was 0.454, the relative viability ([13]; first compound 1.265 µM) was 0.434 and the relative viability ([13]; first compound 4 µM) was 0.339. For the same molecule, the relative viability ([14]; first compound 0.04 µM) was 0.822, the relative viability ([14]; first compound 0.1265 µM) was 0.643 and the relative viability ([14]; first compound 0.4 µM) was 0.72. The relative viability ([14]; first compound 1.265 µM) was 0.237, the relative viability ([14]; first compound 4 µM) was 0.225 and the relative viability ([15]; first compound 0.04 µM) was 0.37. For the same molecule, the relative viability ([15]; first compound 0.1265 µM) was 0.486, the relative viability ([15]; first compound 0.4 µM) was 0.37 and the relative viability ([15]; first compound 1.265 µM) was 0.435. The relative viability ([15]; first compound 4 µM) was 0.401, the relative viability ([16]; first compound 0.04 µM) was 0.714 and the relative viability ([16]; first compound 0.1265 µM) was 0.516. For the same molecule, the relative viability ([16]; first compound 0.4 µM) was 0.459, the relative viability ([16]; first compound 1.265 µM) was 0.397 and the relative viability ([16]; first compound 4 µM) was 0.387. For the same molecule, the relative viability ([17]; first compound 0.04 µM) was 0.593, the relative viability ([17]; first compound 0.1265 µM) was 0.385 and the relative viability ([17]; first compound 0.4 µM) was 0.314. For the same molecule, the relative viability ([17]; first compound 1.265 µM) was 0.125, the relative viability ([17]; first compound 4 µM) was 0.0518 and the relative viability ([18]; first compound 0.04 µM) was 0.496. It also gave a relative viability ([18]; first compound 0.1265 µM) of 0.299, a relative viability ([18]; first compound 0.4 µM) of 0.315 and a relative viability ([18]; first compound 1.265 µM) of 0.222. The relative viability ([18]; first compound 4 µM) was 0.213, the relative viability ([19]; first compound 0.04 µM) was 0.929 and the relative viability ([19]; first compound 0.1265 µM) was 0.507. It also gave a relative viability ([19]; first compound 0.4 µM) of 0.419, a relative viability ([19]; first compound 1.265 µM) of 0.208 and a relative viability ([19]; first compound 4 µM) of 0.171. It also gave a relative viability ([20]; first compound 0.04 µM) of 0.647, a relative viability ([20]; first compound 0.1265 µM) of 0.641 and a relative viability ([20]; first compound 0.4 µM) of 0.421. The relative viability ([20]; first compound 1.265 µM) was 0.297 and the relative viability ([20]; first compound 4 µM) was 0.227.
